The subject of one experiment is IN. Conditions: INSTIs; cited from earlier work.
The next experiment has as its target T1, S217K IN^PFV-DNA complex (Human spumaretrovirus, UniProt P14350, G968K/S969G).
T1 construct: The pET-IN-PFV plasmid containing the full-length IN gene was used for mutagenesis; His; made in house; host or cells: E. coli BL21-CodonPlus (DE3)-RIPL
As to the kind of experiment: Fluorescence enhancement DTG-binding assay, S217K mutant. Further details: species or system prototype foamy virus (PFV). Conditions: DTG 0.3 μM, 1 mM Mg2+. The method, then:
The fluorescence intensity was monitored as a function of (IN + DNA) and plotted as a function of the binary IN-DNA complex concentration (measured as explained in Fig. 2E legend). […] The graphs in panels A-B show representative data of three independent experiments.
(§1) Fluorescence excitation and emission spectra of INSTIs were recorded on a Eclipse (Varian) spectrofluorimeter equipped with two polarizers for anisotropy measurements and a thermostated cell holder, using 80 µl solutions placed in micro cells (Hellma). Drug, IN and DNA concentrations, excitation/emission slit settings as well as the photomultiplier tube (PMT) voltage are specified in figure legends. The intensity value was corrected from the inner filter effect. The steady-state fluorescence anisotropy was calculated using: r = (IVV–G x IVH)/(IVV + 2GxIVH) where IVV and IVH correspond to vertical and horizontal components, respectively, when the sample is excited with vertically polarized light. G represents the correction factor for the difference in the monochromator transmission between // and ⊥ polarized components: G = IHV/IHH. All experiments were performed at 25 °C in buffer A: 20 mM Tris pH 7.2, 50 mM NaCl, 1 mM DTT and 10% (v/v) DMSO.

In experiment [1] the target is T2, IN^PFV-DNA complexes (DNA#1, DNA#6, DNA#7) (Human spumaretrovirus, UniProt P14350).
T2 construct: The full-length wt IN^PFV, the three single mutants of the catalytic triad; His; made in house; host or cells: E. coli BL21-CodonPlus (DE3)-RIPL
As to the kind of experiment: Inhibition of ST activity by DTG using DNA#1, DNA#6 or DNA#7 substrates. In kind it is biochemical, prototype foamy virus (PFV). Conditions: 100 nM DTG, 300 nM IN. The text has this: The results in Table 1 cannot discriminate between a direct sequence effect on DTG-binding from an indirect effect via a possible defect in the IN-DNA interaction. The binding of IN to various DNA sequences (DNA#1 #8 #9 and #13) was similar, as measured by fluorescence anisotropy using fluorescein-labeled DNAs (Supplementary Fig. S5A). […] The X-ray structure of the IN^PFV-DNA complex highlights specific contacts (about 9) between amino acids and the bases of the two strands (i.e. reactive and non-transferred DNA strands), up to the 10th position from the reactive strand 3′-end[26]. In particular, there is a specific contact involving a guanine of the non-transferred strand at pos. 10 and the N69 residue. […] To note, based on X-ray structures of ternary RAL/or DTG-IN-DNA complexes[26],[29] in which the INSTI has direct contacts with several bases at pos.
Figure S5. Comparison of the binary INPFV-DNA complex formation using various DNA sequences. (A) The binding of INPFV to various DNA sequences was studied by steady-state […]
concentrations of IN and DNA were mixed in the presence of 1mM Mg2+ and the r parameter was monitored. A constant concentration of Fl-DNA (0.3 µM) was maintained throughout the titration. The percentage of binary complexes as a function of (IN+DNA) was calculated using: %=(r–r0)/(rmax–r0) x100 where r0 and rmax correspond to anisotropy values of free DNA and IN-bound DNA, respectively.
(B) ST activity of IN (200 or
300 nM) after 4h incubation at 37°C using radiolabeled DNA#1, #6 or #7. Results are expressed as percentage of the activity corresponding to: DNA#1 + 300 nM IN. (C) Inhibition of the ST activity by […]
IN concentration was 300 nM. For each substrate,
The bar graphs in panels B-
(also on this page, place not known: PFV-DNA steady -state IN Strand transfer activity (% of ST with and 300 nM IN) strand transfer (% of untreated) Binary IN-DNA complexes (%) DNA#1)

For experiment [2], the target named is T3, PFV IN complexed with various DNA sequences (Human spumaretrovirus, UniProt P14350).
T3 construct: The full-length wt IN^PFV, the three single mutants of the catalytic triad; His; made in house; host or cells: E. coli BL21-CodonPlus (DE3)-RIPL
As to the kind of experiment: DTG binding to IN complexed with various DNA sequences, fluorescence intensity procedure. Further details: species or system prototype foamy virus (PFV). The note with it: for DTG-binding (%) Fluorescence intensity procedure: normalized by DNA#1, [IN]=[DNA]=1.8 μM, [DTG]=0.3 μM, 1 mM Mg2+. As for the experimental part:
All experiments were performed in the presence of 1 mM Mg^2+ (see Supplementary Fig. S4 for [Mg^2+] = 10 mM). λex = 345 nm and PMT = 980 V (Δλex = Δλem = 5 nm). […] Contributions of Raman and Rayleigh scattering were eliminated in the inset spectrum: (viii) = (iv)–(vii) where (vii) represents the proper spectrum of Mg^2+-DTG in the context of the binary IN-DNA complex. […] [Mg^2+] = 1 mM. Inset: fluorescence intensity (375–385 nm) as a function of (IN + DNA). The arrows indicate the intensity level after addition of 500 mM NaCl. Emission spectra are representative of 3 independent experiments for each condition of (IN + DNA). […] (E) Measurement of the binary IN-DNA complex formation. The formation of binary complexes was performed by monitoring the fluorescence anisotropy (r) of DNA (Fl-PFV^CAAT) under similar experimental conditions of the DTG-binding assay (panels C-D). Top, varying stoichiometric concentrations of IN and DNA were mixed and the r parameter was monitored. A constant concentration of Fl-DNA (0.3 μM) was maintained throughout the titration. […] Bottom, corresponding percentages of binary complexes as a function of (IN + DNA): % = (r–r0)/(rmax–r0)x100 where r0 and rmax correspond to anisotropy values of free DNA and IN-bound DNA, respectively. (F) Linear relationship between the percentages of ternary and binary complexes. […]
as §1

SMILES strings stand for the structures.

For `C[C@@H]1CCO[C@H]2Cn3cc(C(=O)NCc4ccc(F)cc4F)c(=O)c(O)c3C(=O)N12` [DTG, dolutegravir], the IC50 values entry in the experiment with IN was “low-nanomolar range”. In addition, the “DTG binding to S217K” value on S217K IN^PFV-DNA complex was “No binding”. Also, the results for the “ST inhibition by DTG” value in experiment [1] (IN-DNA#1 complexes), in experiment [1] (IN-DNA#6 complexes) and in experiment [1] (IN-DNA#7 complexes) were “remained DTG-sensitive”, “remained DTG-sensitive” and “absence of ST inhibition”, respectively. The “DTG-binding (%) Fluorescence intensity procedure” value in experiment [2] (DNA#1 (cognate)) was 100%; in experiment [2] (DNA#2), 83 ± 5%; in experiment [2] (DNA#3) it was 89 ± 6%; in experiment [2] (DNA#4), 84 ± 4%; in experiment [2] (DNA#5), 101 ± 5%; in experiment [2] (DNA#6), 76 ± 5%. The “DTG-binding (%) Fluorescence intensity procedure” value stood at 20 ± 3% in experiment [2] (DNA#7); 7 ± 2% in experiment [2] (DNA#8); 9 ± 2% in experiment [2] (DNA#9 (random sequence)); 23 ± 3% in experiment [2] (DNA#10); 24 ± 2% in experiment [2] (DNA#11); 72 ± 6% in experiment [2] (DNA#12). In experiment [2] (DNA#13 (processed DNA product)), the “DTG-binding (%) Fluorescence intensity procedure” value was determined as 66 ± 4%. In addition, the “DTG binding activity, % of the binding activity obtained with DNA#1” value in experiment [2] (DNA#12 (CAAT-3′→CAGT-3′), both procedures (text summary of Table 1)) is 72–77%; in experiment [2] (IN in complex with DNA#2→6 (text summary of Table 1)), more than 76%.

The values above are taken from article PMC5656594 (Scientific Reports, 2017).
